Reference: patent US6514967B1 (priority 1997, dated 2003)

What was measured:
[1] = Concentration in brain and plasma after systemic injection; format: in vivo, rats of the Wistar strain
Experimental: Experimental preparation: [Amer. J. Physiol., 267 (1994) R164-R170]
Under general anaesthesia, catheters made from tubes of flexible and inert polyethylene PE50 (Clay Adams) are placed in the right carotid artery of male rats of the Wistar strain weighing 250 g, and are slid under the skin to emerge at the nape at a site that is inaccessible to the animal. The injections are carried out 5 days later, to allow the animals optimum post-operative recovery. This arrangement permits easy and very quick systemic injections on the animal while it is conscious.
At the specified time after injection, the animals are killed by decapitation. The brains are removed in less than a minute without further fractionation. The meninges are quickly separated and the brains are rinsed in a large volume of physiological serum before being frozen at −30° C. The blood is collected on EDTA in tubes maintained at 0° C. After centrifugation, the plasma is separated and aliquots are preserved at −30° C.
After thawing, the brains are weighed and homogenized in the cold in 3 volumes of NaOH (0.1N), using an Ultra-Turrax pulverizer. An internal standard, at a suitable concentration, is added to each sample to allow for individual variations in extraction. The pulverizates are directly extracted three times with a total of 6 volumes of ethyl acetate, followed each time by centrifugation at high speed.
Apart from the stage of pulverizing, the plasmas are treated similarly.
The extracts are filtered through a 0.22 μm Millipore membrane and, after evaporation of the solvent under a nitrogen stream, the dry extracts are stored at −30° C.
One of the compounds of the invention (IC 180), diluted in physiological serum, is injected at a concentration equal to 20 mg.kg^−1. […] Its concentration decreases by about 50% in the brain, 1 hour after injection. […] The ratio of the concentrations between the brain and the plasma therefore increases between 30 and 60 minutes after injection.

[2] = test system: astrocytes; test: Recapture of glutamate by cultures of astrocytes, radicals generated by xanthine/xanthine oxidase (X/XO); format: cell-based, rats
Experimental: B) Procedure with cultures of astrocytes and generation of radicals by the xanthine/xanthine oxidase (X/XO) pair
400 μl of D-lysine at 25 μg/ml (9 ml of D-lysine at 100 μg per ml of borate buffer (0.1M pH 8.4)+27 ml of water) is placed in each well of 24-well culture plates. The wells are left in the stove (5% CO2, 37° C.) over night. Each well is rinsed with 2 times 750 μl of Hanks before receiving the culture medium. 3 lateral demi cortices are taken from rats aged 1 to 2 days. (The hippocampus, the striatum and the meninges are removed). The demi cortices are placed in 2 ml of trypsin-EDTA then put in the stove for 30 min. The action of the trypsin is stopped with 10% of decomplemented foetal calf serum (200 μl). The serum and the trypsin are removed then the cells are dissociated with a pipette in 10 ml of medium (MEM 225 ml+FCS-D 25 ml+glucose 20% 7.5 ml) (MEM=minimum essential medium; FCS-D=decomplemented foetal calf serum). The culture medium is made up to 30 ml, stirred and placed at 400 μl per well. The medium is changed twice weekly for 18 days. The last replacement is effected 4 days prior to the treatment, with a medium without decomplemented foetal calf serum. (MEM 31.5 ml+glucose 20% 1.05 ml).
Treatment takes place on the 18th or 19th day.
Each well is washed with 750 μl of buffer (NaCl 124 mM, KCl 4.6 mM, CaCl2 1.2 mM, MgCl2 1.3 mM, KH2PO4 0.416 mM, NaHCO3 26.75 mM, glucose 10 mM; pH 7.4) for 10 min. The cells are incubated in the presence of xanthine (500 μM) and of the test product (from 0 to 1 mM). After 10 min, xanthine oxidase is added (50 mU/ml) and it is again left to incubate for 10 min. Release of radicals is stopped by washing 3 times with catalase (3000 U/ml). The glutamate is then recaptured in a solution of radioactive glutamate (^3H) at 40 μM (isotopic dilution 1/20000). Recapture is stopped by washing 3 times with the cold buffer. The cells are detached with soda 0.2N and the radioactivity is measured.
Firstly we checked that the inhibition of recapture observed in the presence of X/XO is indeed due to a radical process. For this we replaced the test products with two enzymes: SOD (SuperOxide Dismutase) and catalase (FIG. 1). […] The Fenton reaction converting hydrogen peroxide to OH• is thus short-circuited. […] However, as there seems to be sufficient reducing agent in the medium to promote the formation of H2O2 starting from O2^•^−, it appears likely that a substantial proportion of H2O2 gives OH• (a highly reactive radical).
FIGS. 3 to 8 are the mean of at least 4 independent tests in which the protective power of IC180, IC023, IC241, IC2-16, IC178, IC140, IC209, IC237, IC146, IC193, IC194, IC242, IC207, IC2-19, IC219, IC2-21, and IC249, as a function of the dose, was tested against a fixed concentration of radicals, and therefore of X/XO. In the case of IC180, the increase in recapture appears to be linear (up to 100% is found in some tests). […] Since IC023 alone only becomes “toxic” starting from 1 mM, the variation observed starting from 0.6 mM might reflect the existence of metabolites that are poorly tolerated by the cells. The derivative morpholine IC180 is more interesting.

[3] = 30 min after injection of 20 mg.kg^−1
[4] = 1 hour after injection of 20 mg.kg^−1

## c1cc2c(s1)CCCC2N1CCOCC1 (stereo not shown) [IC180, morpholine-4-tetrahydro-4,5,6,7-benzothiophene]
[1]; [3]
  detection in the brain: detected preferentially in the brain
  detection in the plasma: clearly identifiable in the plasma
[1]; [4]
  decrease of concentration in the brain: about 50%
  detection in the plasma: can only be detected very slightly
[1]; between 30 and 60 minutes after injection, FIG. 10
  ratio of the concentrations between the brain and the plasma: increases
[2]; fixed concentration of X/XO, dose-dependent, found in some tests
  increase in recapture of glutamate, highest found: up to 100%
[2]; without the presence of X/XO
  effect of the product alone on recapture: no effect on recapture
